Data on 22 compounds can be found in patent US20220259212A1, “INHIBITORS OF INDOLEAMINE 2,3-DIOXYGENASE AND/OR TRYPTOPHAN 2,3-DIOXYGENASE” (Idorsia Pharmaceuticals Ltd, priority 2019, published 2022).

SMILES strings stand for the structures. Some results are limits rather than exact numbers.

One assay has as its target T1, IDO1 in SKOV3 cells (Homo sapiens, UniProt P14902).
T1 construct: SKOV3 cells (NCI, No. 0503405) which upregulate IDO1 after stimulation with IFNγ; host or cells: SKOV3 cells stimulated with IFNγ
Description: Cell-based IDO inhibitory activity in IFNγ-stimulated SKOV3 cells (NFK + kynurenine by LCMS). Particulars: IFNγ 50 ng/ml, 200 uM L-tryptophan, 24 hours. In outline: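 SKOV3 cells (4000/well, pre-cultured 24 h) were treated with compound (10 uM-40 nM) plus 200 uM L-tryptophan and 50 ng/ml IFNγ for 24 h at 37° C. N-formylkynurenine plus kynurenine in supernatant was measured by LCMS against a d5-tryptophan internal standard. IC50 was fitted against 0.2% DMSO and reference-inhibitor controls, in duplicate, with repeat measurements averaged.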

Assay [1] deals with T2, Recombinant full-length human IDO1 (Homo sapiens, UniProt P14902).
T2 construct: Recombinant full-length human IDO1 with a N-terminal hexahistidine tag; hexahistidine (N); made in house; host or cells: E. coli
T2 sequence (P14902 whole entry): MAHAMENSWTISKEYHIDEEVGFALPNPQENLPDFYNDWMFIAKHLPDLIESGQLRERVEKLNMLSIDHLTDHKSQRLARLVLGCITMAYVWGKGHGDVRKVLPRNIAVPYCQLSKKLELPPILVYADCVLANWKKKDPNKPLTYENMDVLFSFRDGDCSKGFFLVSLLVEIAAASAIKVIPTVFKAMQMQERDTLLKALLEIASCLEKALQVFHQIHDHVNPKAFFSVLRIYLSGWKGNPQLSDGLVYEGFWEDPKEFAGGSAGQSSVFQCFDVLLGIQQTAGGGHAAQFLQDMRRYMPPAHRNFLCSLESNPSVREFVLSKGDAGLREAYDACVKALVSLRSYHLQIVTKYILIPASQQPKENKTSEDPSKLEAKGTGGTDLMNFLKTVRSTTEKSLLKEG
The assay is described as follows: IDO1 enzymatic assay (NFK quantified by LCMS). The following applies: 2 nM enzyme, 5 μM L-tryptophan, 30 min pre-incubation, pH6.5; mean if measured multiple times; read-out: hIDO activity (IC50 in nM). The format is biochemical. In outline:
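His-tagged full-length IDO1 (E. coli, 2 nM final) in pH 6.5 phosphate with ascorbate, methylene blue and catalase was preincubated 30 min at RT with compound (10 µM–0.5 nM, 0.6% DMSO), then run 30 min at RT with 5 µM L-Trp. NFK was measured by LCMS against a d5-Trp standard. IC50 came from a four-parameter fit of duplicates.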

The target of assay [2] is T3, Recombinant human TDO comprising amino acids 19-407 (Homo sapiens, UniProt P48775).
T3 construct: human TDO comprising amino acids 19-407; hexahistidine (N); made in house; host or cells: E. coli
T3 sequence (P48775 19-406 limits assumed): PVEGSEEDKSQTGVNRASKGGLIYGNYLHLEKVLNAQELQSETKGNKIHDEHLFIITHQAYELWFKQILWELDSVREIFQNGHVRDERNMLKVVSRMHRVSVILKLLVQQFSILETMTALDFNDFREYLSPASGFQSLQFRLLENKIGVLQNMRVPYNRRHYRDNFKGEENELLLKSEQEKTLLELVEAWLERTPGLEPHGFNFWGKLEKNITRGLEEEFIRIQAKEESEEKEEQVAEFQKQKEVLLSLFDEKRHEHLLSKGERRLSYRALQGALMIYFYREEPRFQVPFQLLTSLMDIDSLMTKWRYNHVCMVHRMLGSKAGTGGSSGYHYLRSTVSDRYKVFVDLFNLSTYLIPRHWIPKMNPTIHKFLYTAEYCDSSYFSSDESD
The assay is described as follows: TDO2 enzymatic assay (NFK quantified by LCMS). The format is biochemical. The following applies: 15 nM enzyme, 200 μM L-tryptophan, 30 min pre-incubation, pH7; mean if measured multiple times; read-out: hTDO activity (IC50 in nM). In outline: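 E. coli-expressed N-terminal His-tagged TDO (15 nM) in pH 7 phosphate buffer with ascorbate and catalase, preincubated 30 min at RT with compound (10 μM to 0.5 nM, 0.6% DMSO). Reaction started with 200 μM L-tryptophan for 30 min at RT; NFK measured by LCMS against deuterated internal standard, IC50 by four-parameter fit, duplicates.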

T1 sequence (P14902 whole entry): as the sequence (P14902 whole entry) above

In the case of `COc1cc(F)c(-n2cc([C@H](O)c3c(C4CC4)ncc4cncn34)nn2)cc1F` [Example 22, (R)-(6-Cyclopropyl-imidazo[1,5-a]pyrazin-5-yl)-[1-(2,5-difluoro-4-methoxy-phenyl)-1H-[1,2,3]triazol-4-yl]-methanol], the IC50 (in general, the point on the concentration scale where inhibition reaches its midpoint) is 20.2 nM on IDO1 in SKOV3 cells, 6.36 nM in assay [1] and more than 10200 nM in assay [2].
For `O[C@@H](c1cn(-c2ccc(N3CCC34COC4)cc2)nn1)c1c(C2CC2)ncc2cncn12` [Example 46, (R)-(6-Cyclopropyl-imidazo[1,5-a]pyrazin-5-yl)-{1-[4-(6-oxa-1-aza-spiro[3.3]hept-1-yl)-phenyl]-1H-[1,2,3]triazol-4-yl}-methanol] the same measures were 356 nM, 15.1 nM and more than 10200 nM.
For `Oc1ccc(-n2cc(C(O)c3c(C4CC4)ccc4cncn34)nn2)cc1Cl` (single isomer, unassigned) [Example 7a] the same measures were 4.84 nM, 2.12 nM and more than 10200 nM.
As for `COc1cc(F)c(-n2cc([C@H](O)c3c(Cl)ccc4cncn34)nn2)cc1F` [Example 31, (R)-(6-Chloro-imidazo[1,5-a]pyridin-5-yl)-[1-(2,5-difluoro-4-methoxy-phenyl)-1H-[1,2,3]triazol-4-yl]-methanol], the values for the IC50 (on IDO1 in SKOV3 cells; in assay [1]; in assay [2]) were 9.2 nM, 1.13 nM and more than 10200 nM, respectively.
In the case of `CCOc1ccc(-n2cc(C(O)c3c(C4CC4)ncc4cncn34)nn2)cn1` (racemic) [Example 13, rac-(6-Cyclopropyl-imidazo[1,5-a]pyrazin-5-yl)-[1-(6-ethoxy-pyridin-3-yl)-1H-[1,2,3]triazol-4-yl]-methanol], the results for the IC50 (at IDO1 in SKOV3 cells; in assay [1]; in assay [2]) were 326 nM, 27.2 nM and more than 10200 nM, respectively.
Regarding `COc1cc(F)c(-n2cc([C@H](O)c3c(C4CC4)ncc4cncn34)nn2)cc1Cl` [Example 25, (R)-[1-(5-Chloro-2-fluoro-4-methoxy-phenyl)-1H-[1,2,3]triazol-4-yl]-(6-cyclopropyl-imidazo[1,5-a]pyrazin-5-yl)-methanol], the half-maximal inhibitory concentration (IC50) at IDO1 in SKOV3 cells was 33 nM; in assay [1], 5.86 nM; in assay [2], more than 10200 nM.
Turning to `COc1ccc(-n2nnc([C@H](O)c3c(Cl)ccc4cncn34)c2C)cc1` [Example 20a, (R)-(6-Chloro-imidazo[1,5-a]pyridin-5-yl)-[1-(4-methoxy-phenyl)-5-methyl-1H-[1,2,3]triazol-4-yl]-methanol], the values for the IC50 (at IDO1 in SKOV3 cells; in assay [1]; in assay [2]) were 10.7 nM, 1.84 nM and 2190 nM, respectively.
In the case of `Oc1ccc(-n2cc([C@@H](O)c3c(C4CC4)ccc4cncn34)nn2)cc1Cl` [Example 7b, 2-Chloro-4-{4-[(S)-(6-cyclopropyl-imidazo[1,5-a]pyridin-5-yl)-hydroxy-methyl]-[1,2,3]triazol-1-yl}-phenol], the IC50 on IDO1 in SKOV3 cells is 703 nM; in assay [1], 361 nM; in assay [2], more than 10200 nM.
On the same counts, the results for `COC(=O)Nc1ccc(-n2cc(C(O)c3c(C4CC4)ccc4cncn34)nn2)cc1` (racemic) [Example 6, rac-(4-{4-[(6-Cyclopropyl-imidazo[1,5-a]pyridin-5-yl)-hydroxy-methyl]-[1,2,3]triazol-1-yl}-phenylycarbamic acid methyl ester] are 11.8 nM, 9.14 nM and more than 10200 nM.
Take `O[C@@H](c1cn(-c2ccc(N3CC4(COC4)C3)cc2)nn1)c1c(C2CC2)ncc2cncn12` [Example 45, (R)-(6-Cyclopropyl-imidazo[1,5-a]pyrazin-5-yl)-{1-[4-(2-oxa-6-aza-spiro[3.3]hept-6-yl)-phenyl]-1H-[1,2,3]triazol-4-yl}-methanol]: the half-maximal inhibitory concentration (IC50) at IDO1 in SKOV3 cells was 56.8 nM; in assay [1], 15 nM; in assay [2], more than 10200 nM.
On the same counts, the results for `O[C@@H](c1cn(-c2ccccc2)nn1)c1c(Cl)ccc2cncn12` [Example 1a, (R)-(6-Chloro-imidazo[1,5-a]pyridin-5-yl)-(1-phenyl-1H-[1,2,3]triazol-4-yl)-methanol] are 193 nM, 5.07 nM and 9110 nM.
With `COc1ccc(-n2cc([C@H](O)c3c(C4CC4)ncc4cncn34)nn2)cc1F` [Example 21, (R)-(6-Cyclopropyl-imidazo[1,5-a]pyrazin-5-yl)-[1-(3-fluoro-4-methoxy-phenyl)-1H-[1,2,3]triazol-4-yl]-methanol], the IC50 on IDO1 in SKOV3 cells is 33.2 nM; in assay [1], 8.24 nM; in assay [2] it was more than 10200 nM.
Consider `CC(C)(O)COc1ccc(-n2cc(C(O)c3c(C4CC4)ncc4cncn34)nn2)cc1` (racemic) [Example 18, rac-1-(4-{4-[(6-Cyclopropyl-imidazo[1,5-a]pyrazin-5-yl)-hydroxy-methyl]-[1,2,3]triazol-1-yl}-phenoxy)-2-methyl-propan-2-ol], for which the half-maximal inhibitory concentration (IC50) is 140 nM at IDO1 in SKOV3 cells, 33.2 nM in assay [1] and more than 10200 nM in assay [2].
As for `Cc1ccc(-n2cc(C(O)c3c(C4CC4)ccc4cncn34)nn2)cc1` (racemic) [Example 5, rac-(6-Cyclopropyl-imidazo[1,5-a]pyridin-5-yl)-(1-p-tolyl-1H-[1,2,3]triazol-4-yl)-methanol], the half-maximal inhibitory concentration (IC50) was 53.7 nM at IDO1 in SKOV3 cells, 4.83 nM in assay [1] and more than 10200 nM in assay [2].
Regarding `CC(C)(O)COc1ccc(-n2cc([C@H](O)c3c(C4CC4)ncc4cncn34)nn2)cc1F` [Example 29, 1-(4-{4-[(R)-(6-Cyclopropyl-imidazo[1,5-a]pyrazin-5-yl)-hydroxy-methyl]-[1,2,3]triazol-1-yl}-2-fluoro-phenoxy)-2-methyl-propan-2-ol], the half-inhibitory concentration (IC50) at IDO1 in SKOV3 cells is 29.9 nM; in assay [1], 7.74 nM; in assay [2], more than 10200 nM.
For `OC(c1cn(-c2ccc(OCC3(F)COC3)cc2)nn1)c1c(C2CC2)ccc2cncn12` (racemic) [Example 19, rac-(6-Cyclopropyl-imidazo[1,5-a]pyridin-5-yl)-{1-[4-(3-fluoro-oxetan-3-ylmethoxy)-phenyl]-1H-[1,2,3]triazol-4-yl}-methanol] the same measures were 11.6 nM, 13.7 nM and more than 10200 nM.
As for `O[C@@H](c1cn(-c2ccc(OCC3(F)COC3)c(F)c2)nn1)c1c(C2CC2)ncc2cncn12` [Example 28, (R)-(6-Cyclopropyl-imidazo[1,5-a]pyrazin-5-yl)-{1-[3-fluoro-4-(3-fluoro-oxetan-3-ylmethoxy)-phenyl]-1H-[1,2,3]triazol-4-yl}-methanol], the half-maximal inhibitory concentration (IC50) at IDO1 in SKOV3 cells is 19.5 nM; in assay [1], 6.28 nM; in assay [2], more than 10200 nM.
For `Cc1c(C(O)c2c(Cl)ccc3cncn23)nnn1-c1ccccc1` (racemic) [Example 38, rac-(6-Chloro-imidazo[1,5-a]pyridin-5-yl)-(5-methyl-1-phenyl-1H-[1,2,3]triazol-4-yl)-methanol] the same measures were 86 nM, 5.43 nM and 4710 nM.
Turning to `COc1cc(F)c(-n2nnc(C(O)c3c(Cl)ccc4cncn34)c2C)cc1Cl` (racemic) [Example 39, rac-[1-(5-Chloro-2-fluoro-4-methoxy-phenyl)-5-methyl-1H-[1,2,3]triazol-4-yl]-(6-chloro-imidazo[1,5-a]pyridin-5-yl)-methanol], the half-maximal inhibitory concentration (IC50) on IDO1 in SKOV3 cells turned out to be 6.94 nM; in assay [1] it was 5.26 nM; in assay [2], 7940 nM.
For `CCOc1ccc(-n2cc(C(O)c3c(C4CC4)ccc4cncn34)nn2)cn1` (racemic) [Example 9, rac-(6-Cyclopropyl-imidazo[1,5-a]pyridin-5-yl)-[1-(6-ethoxy-pyridin-3-yl)-1H-[1,2,3]triazol-4-yl]-methanol], the half-inhibitory concentration (IC50) at IDO1 in SKOV3 cells is 31.2 nM; in assay [1], 5.43 nM; in assay [2], more than 10200 nM.
`O[C@@H](c1cn(-c2ccc(OCC3COC3)c(F)c2)nn1)c1c(C2CC2)ncc2cncn12` [Example 36, (R)-(6-Cyclopropyl-imidazo[1,5-a]pyrazin-5-yl)-{1-[3-fluoro-4-(oxetan-3-ylmethoxy)-phenyl]-1H-[1,2,3]triazol-4-yl}-methanol]: the IC50 at IDO1 in SKOV3 cells was 16.8 nM; in assay [1], 8.33 nM; in assay [2], more than 10200 nM.
For `COc1ccc(-n2cc([C@H](O)c3c(C4CC4)ncc4cncn34)nn2)c(F)c1Cl` [Example 33, (R)-[1-(3-Chloro-2-fluoro-4-methoxy-phenyl)-1H-[1,2,3]triazol-4-yl]-(6-cyclopropyl-imidazo[1,5-a]pyrazin-5-yl)-methanol] the same measures were 127 nM, 5.33 nM and more than 10200 nM.
